According to patent US4788193A, “1-aryloxy-3-(substituted alkylamino)-2-propanols, pharmaceutical compositions and use” (Merck & Co., Inc., priority 1987, dated 1988):

Legend:
Assay type in all cases: cell-based
β2 (trachea) = target: T1, β2 (trachea) (Cavia porcellus, UniProt Q8K4Z4); experiment: inhibition of isoproterenol-induced relaxation in isolated guinea pig tracheal chains contracted with PGF2α (β2); settings: read-out: pA2 values β2 (trachea) (converted)
T1 construct: isolated guinea pig tracheal chains; from tissue; host or cells: isolated guinea pig tracheal chains
Experimental: (§1) The in vitro β-adrenergic blocking properties of the novel compounds of this invention were evaluated in accordance with standard procedures. The interaction with the β1 -receptor was determined via inhibition of the positive chronotropic actions of isoproterenol in isolated guinea pig atrial preparations. β2 potency was determined by using isolated guinea pig tracheal chains contracted with PGF2@ and by measuring inhibition of isoproterenol-induced relaxation.

β1-receptor [1] = experiment: inhibition of the positive chronotropic actions of isoproterenol in isolated guinea pig atrial preparations (β1); settings: β1 (atria) versus β2 (trachea), from pA2 values
Experimental: as §1

β1-receptor [2] = target: T2, β1-receptor (Cavia porcellus, UniProt H0W3H1); experiment: as above; settings: isolated guinea pig atria, isoproterenol chronotropic action; read-out: pA2 values β1 (atria) (converted)
T2 construct: isolated guinea pig atrial preparations; from tissue; host or cells: isolated guinea pig atria
Experimental: as §1

T2 sequence (H0W3H1 1-470): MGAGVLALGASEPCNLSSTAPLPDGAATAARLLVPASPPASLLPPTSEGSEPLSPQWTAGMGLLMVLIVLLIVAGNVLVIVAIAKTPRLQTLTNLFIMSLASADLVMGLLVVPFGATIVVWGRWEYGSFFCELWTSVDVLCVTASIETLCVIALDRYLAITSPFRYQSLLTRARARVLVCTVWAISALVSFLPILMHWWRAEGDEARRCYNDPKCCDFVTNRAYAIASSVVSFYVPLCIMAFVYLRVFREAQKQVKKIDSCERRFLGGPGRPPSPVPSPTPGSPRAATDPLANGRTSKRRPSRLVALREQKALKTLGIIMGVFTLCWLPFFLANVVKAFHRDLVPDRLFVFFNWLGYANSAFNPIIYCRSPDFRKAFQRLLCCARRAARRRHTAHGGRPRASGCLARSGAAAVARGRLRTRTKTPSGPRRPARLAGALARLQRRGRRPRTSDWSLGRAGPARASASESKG
T1 sequence (Q8K4Z4 whole entry): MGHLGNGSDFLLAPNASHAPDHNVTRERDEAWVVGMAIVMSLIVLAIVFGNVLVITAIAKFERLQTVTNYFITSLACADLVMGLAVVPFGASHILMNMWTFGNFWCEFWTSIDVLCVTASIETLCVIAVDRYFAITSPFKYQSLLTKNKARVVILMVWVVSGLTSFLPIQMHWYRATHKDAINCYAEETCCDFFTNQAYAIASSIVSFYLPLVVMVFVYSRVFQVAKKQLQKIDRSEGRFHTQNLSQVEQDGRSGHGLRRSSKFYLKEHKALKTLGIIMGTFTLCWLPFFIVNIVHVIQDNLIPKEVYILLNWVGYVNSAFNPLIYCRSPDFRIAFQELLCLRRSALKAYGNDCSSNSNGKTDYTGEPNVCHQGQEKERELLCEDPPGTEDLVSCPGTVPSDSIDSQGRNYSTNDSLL

SMILES	Kb (β2 (trachea)) [nM]	Kb (β1-receptor [2]) [nM]	Cardioselectivity ratio (β1-receptor [1])
N#Cc1ccccc1OCC(O)CNCCc1cccnc1 (centres unmarked)	138	23.4	5.9
N#Cc1ccccc1OCC(O)CNCCc1ccccn1 (centres unmarked)	34700	34.7	1000
N#Cc1ccccc1OCC(O)CNCCc1ccncc1 (centres unmarked)	302	74.1	4.1
CN(C)CCNCC(O)COc1ccccc1C#N (centres unmarked) [N(CH3)2, 1-(2-cyanophenoxy)-3-[2-(dimethylamino)ethyl]-amino-2-propanol]	1120	43.7	

Second part, led by results:

Kb (β2 (trachea)) [nM]	Kb (β1-receptor [2]) [nM]	SMILES	Cardioselectivity ratio (β1-receptor [1])
64.6	25.7	N#Cc1ccccc1OCC(O)CNCCN1CCNCC1 (centres unmarked)	2.5
89.1	15.5	N#Cc1ccccc1OCC(O)CNCCN1CCOCC1 (centres unmarked)	5.8
